Source: ChEMBL document CHEMBL3297704, “Theophylline-7-acetic acid derivatives with amino acids as anti-tuberculosis agents” (Bioorg Med Chem Lett, 2014)
Values after ≈ are worked out from the molar mass of the structure shown. Where a name gives a salt, the structure may show the parent alone.

How the values were obtained:
[1] = tested on: Mycobacterium tuberculosis; assay: Antituberculosis activity against Mycobacterium tuberculosis H37Rv assessed as inhibition of bacterial growth after 45 days; format: functional
HEK-293T = assay: Cytotoxicity against human 293T cells after 72 hrs by MTT assay; format: cell-based

| Structure (SMILES) | MIC [1] | IC50 (HEK-293T) |
| --- | --- | --- |
| Cn1c(=O)c2c(ncn2CC(=O)N[C@@H](Cc2cc3ccccc3[nH]2)C(=O)O)n(C)c1=O | 0.47 µM (≈ 0.199 µg/mL) | > 400 µM |
| CC[C@@H](CO)NCCN[C@@H](CC)CO [ETHAMBUTOL HYDROCHLORIDE] | 7.22 µM |  |
| COC(=O)[C@H](Cc1cc2ccccc2[nH]1)NC(=O)Cn1cnc2c1c(=O)n(C)c(=O)n2C | 0.46 µM (≈ 0.202 µg/mL) | > 400 µM |
| C[C@H](NC(=O)Cn1cnc2c1c(=O)n(C)c(=O)n2C)C(=O)O | 0.65 µM (≈ 0.201 µg/mL) | > 400 µM |
